pIC50: −log10 of the molar value.
Molecular target: T1, human PDE10A (Homo sapiens, UniProt Q9Y233)
T1 construct: Full-length human PDE10A cDNA is amplified using PCR; made in house; host or cells: HEK293 cells, transiently transfected with Lipofectamine 2000; supernatant of the sonicated lysate after 10,000 g
Experiment: PDE10A inhibition assay (IMAP fluorescence polarization)
Format: biochemical
Settings: hPDE10A enzyme from transfected HEK293 cell lysate, fluorescein-labeled cAMP/cGMP
Method: Full-length human PDE10A cDNA is amplified using PCR and cloned into pcDNA3.0 vector (Invitrogen). After verified by DNA sequencing, the plasmid is transfected into HEK293 cell using the Lipofectamine 2000 reagent (Invitrogen). Cells are subsequently harvested and sonicated in cell lysis buffer. After centrifuged at 10,000 g for 20 minutes, supernatant containing cytosolic hPDE10A enzyme is collected and stored at −80° C. PDE10A inhibition assay is performed using the IMAP fluorescence polarization assay (Molecular Devices) according to the manufacturer's protocols. A fixed amount of the hPDE10A enzyme is pretreated with the test compounds, following the addition of fluorescein-labeled cAMP/cGMP. After 1 hour incubation, the IMAP binding reagent is added and incubated for another hour. The fluorescence polarization is then quantified with a fluorescence polarization reader Envision from Perkin Elmer. IC50 values are calculated using the Prism program (GraphPad Software).

T1 sequence (Q9Y233 1-779 isoform Q9Y233-1): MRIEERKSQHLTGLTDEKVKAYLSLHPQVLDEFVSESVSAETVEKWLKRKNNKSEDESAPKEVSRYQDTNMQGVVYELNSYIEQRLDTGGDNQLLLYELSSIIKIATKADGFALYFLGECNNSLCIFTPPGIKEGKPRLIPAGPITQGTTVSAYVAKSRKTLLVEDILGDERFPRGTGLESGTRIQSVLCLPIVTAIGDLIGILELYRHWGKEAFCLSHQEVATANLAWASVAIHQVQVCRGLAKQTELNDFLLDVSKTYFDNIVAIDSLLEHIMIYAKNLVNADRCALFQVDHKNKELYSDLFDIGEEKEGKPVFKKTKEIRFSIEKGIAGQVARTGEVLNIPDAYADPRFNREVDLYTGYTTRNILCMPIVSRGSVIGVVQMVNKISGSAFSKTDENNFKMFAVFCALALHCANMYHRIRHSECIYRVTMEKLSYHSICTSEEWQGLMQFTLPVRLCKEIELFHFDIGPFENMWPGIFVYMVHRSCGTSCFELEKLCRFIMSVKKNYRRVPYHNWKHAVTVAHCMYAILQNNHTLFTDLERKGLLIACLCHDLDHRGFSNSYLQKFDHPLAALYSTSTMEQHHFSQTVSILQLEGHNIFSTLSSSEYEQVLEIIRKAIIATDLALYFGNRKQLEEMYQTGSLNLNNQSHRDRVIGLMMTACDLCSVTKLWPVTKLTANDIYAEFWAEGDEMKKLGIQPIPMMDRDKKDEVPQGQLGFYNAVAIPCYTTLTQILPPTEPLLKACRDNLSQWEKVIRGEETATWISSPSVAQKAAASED

SMILES	pIC50
Cn1cc(-c2ccncc2)c(-c2ccc(C#Cc3ncc4ccccc4n3)cc2)n1 [Example 2, 2-((4-(1-methyl-4-(pyridin-4-yl)-1H-pyrazol-3-yl)phenyl)ethynyl)quinazoline]	≥ 8.00
Cc1cccc(C#Cc2ccc(-c3nn(C)cc3-c3ccncc3)cc2)n1 [Example 3]	≥ 8.00
CCc1cccc(C#Cc2ccc(-c3nn(C)cc3-c3ccncc3)cc2)n1 [Example 4, 2-Ethyl-6-((4-(1-methyl-4-(pyridin-4-yl)-1H-pyrazol-3-yl)phenyl)ethynyl)pyridine]	≥ 8.00
Cn1cc(-c2ccncc2)c(-c2ccc(C#Cc3ccc(C4CC4)cn3)cc2)n1 [Example 7, 5-cyclopropyl-2-((4-(1-methyl-4-(pyridin-4-yl)-1H-pyrazol-3-yl)phenyl)ethynyl)pyridine]	≥ 8.00
Cn1cc(-c2ccncc2)c(-c2ccc(C#Cc3cccc(C(F)(F)F)n3)cc2)n1 [Example 8, 2-((4-(1-methyl-4-(pyridin-4-yl)-1H-pyrazol-3-yl)phenyl)ethynyl)-6-(trifluoromethyl)pyridine]	6.00 to 7.00
Cn1cc(-c2ccncc2)c(-c2ccc(C#Cc3ccc(C(F)(F)F)cn3)cc2)n1 [Example 9, 2-((4-(1-methyl-4-(pyridin-4-yl)-1H-pyrazol-3-yl)phenyl)ethynyl)-5-(trifluoromethyl)pyridine]	6.00 to 7.00
COc1cccc(C#Cc2ccc(-c3nn(C)cc3-c3ccncc3)cc2)n1 [Example 10, 2-methoxy-6-((4-(1-methyl-4-(pyridin-4-yl)-1H-pyrazol-3-yl)phenyl)ethynyl)pyridine]	≥ 8.00
C(#Cc1ccc2ccccc2n1)c1ccc(-c2n[nH]cc2-c2ccncc2)cc1 [Example 11, 2-((4-(4-(pyridin-4-yl)-1H-pyrazol-3-yl)phenyl)ethynyl)quinoline]	≥ 8.00
C(#Cc1ccc2ccccc2n1)c1ccc(-c2nn(C3CC3)cc2-c2ccncc2)cc1 [Example 12, 2-((4-(1-cyclopropyl-4-(pyridin-4-yl)-1H-pyrazol-3-yl)phenyl)ethynyl)quinoline]	≥ 8.00
OCCn1cc(-c2ccncc2)c(-c2ccc(C#Cc3ccc4ccccc4n3)cc2)n1 [Example 13, 2-(4-(pyridin-4-yl)-3-(4-(quinolin-2-ylethynyl)phenyl)-1H-pyrazol-1-yl)ethanol]	≥ 8.00
CCn1cc(-c2ccncc2)c(-c2ccc(C#Cc3ccc4ccccc4n3)cc2)n1 [Example 15, 2-((4-(1-ethyl-4-(pyridin-4-yl)-1H-pyrazol-3-yl)phenyl)ethynyl)quinoline]	≥ 8.00
COCCn1cc(-c2ccncc2)c(-c2ccc(C#Cc3ccc4ccccc4n3)cc2)n1 [Example 16, 2-((4-(1-(2-methoxyethyl)-4-(pyridin-4-yl)-1H-pyrazol-3-yl)phenyl)ethynyl)quinoline]	≥ 8.00
CN(C)CCn1cc(-c2ccncc2)c(-c2ccc(C#Cc3ccc4ccccc4n3)cc2)n1 [Example 17, N,N-dimethyl-2-(4-(pyridine-4-yl)-3-(4-(quinolin-2-ylethynyl)phenyl)-1H-pyrazol-1-yl)ethanamine]	≥ 8.00
C(#Cc1ccc2ccccc2n1)c1ccc(-c2ncncc2-c2ccncc2)cc1 [Example 20, 2-((4-(5-(pyridin-4-yl)pyrimidin-4-yl)phenyl)ethynyl)quinoline]	7.00 to 8.00
C(#Cc1ccc2ccccc2n1)c1ccc(-n2ncnc2-c2ccncc2)cc1 [Example 21, 2-((4-(5-(pyridin-4-yl)-1H-1,2,4-triazol-1-yl)phenyl)ethynyl)quinoline]	7.00 to 8.00
C(#Cc1ccc2ccccc2n1)c1ccc(-n2nccc2-c2ccncc2)cc1 [Example 22, 2-((4-(5-(pyridin-4-yl)-1H-pyrazol-1-yl)phenyl)ethynyl)quinoline]	≥ 8.00
Cn1cc(-c2ccncc2)c(-c2ccc(C#Cc3ccc4ccccc4n3)nc2)n1 [Example 24, 2-(5-(1-methyl-4-pyridin-4-yl-1H-pyrazol-3-yl)pyridin-2-ylethynyl)quinoline]	≥ 8.00
Cn1cc(-c2ccncc2)c(-c2ccc(C#Cc3ccc4ccccc4n3)cc2F)n1 [Example 25, 2-((3-fluoro-4-(1-methyl-4-(pyridin-4-yl)-1H-pyrazol-3-yl)phenyl)ethynyl)quinoline]	≥ 8.00
FCCn1cc(-c2ccncc2)c(-c2ccc(C#Cc3ccc4ccccc4n3)nc2)n1 [Example 32, 2-((5-(1-(2-fluoroethyl)-4-(pyridin-4-yl)-1H-pyrazol-3-yl)pyridin-2-yl)ethynyl)quinoline]	≥ 8.00
Cn1cc(-c2ccc(O)cc2)c(-c2ccc(C#Cc3ccc4ccccc4n3)cc2)n1 [Example 34, 4-(1-methyl-3-(4-(quinolin-2-ylethynyl)phenyl)-1H-pyrazol-4-yl)phenol]	7.00 to 8.00
Cn1cc(-c2ccc(C#Cc3ccc4ccccc4n3)cc2)c(-c2ccncc2)n1 [Example 36, 2-((4-(1-methyl-3-(pyridin-4-yl)-1H-pyrazol-4-yl)phenyl)ethynyl)quinoline]	≥ 8.00

Other lines, results leading:

pIC50	SMILES
≥ 8.00	Cn1cc(-c2ccncc2)c(-c2ccc(C#Cc3ccc4ccccc4n3)cc2)n1 [Example 1, 2-((4-(1-methyl-4-(pyridin-4-yl)-1H-pyrazol-3-yl)phenyl)ethynyl)quinoline]
7.00 to 8.00	Cn1cc(-c2ccncc2)c(-c2ccc(C#Cc3cccc(C4CC4)n3)cc2)n1 [Example 5, 2-cyclopropyl-6-((4-(1-methyl-4-(pyridin-4-yl)-1H-pyrazol-3-yl)phenyl)ethynyl)pyridine]
≥ 8.00	Cc1ccc(C#Cc2ccc(-c3nn(C)cc3-c3ccncc3)cc2)nc1 [Example 6]
≥ 8.00	CNCCn1cc(-c2ccncc2)c(-c2ccc(C#Cc3ccc4ccccc4n3)cc2)n1 [Example 14, N-methyl-2-(4-(pyridin-4-yl)-3-(4-(quinolin-2-ylethynyl)phenyl)-1H-pyrazol-1-yl)ethanamine]
≥ 8.00	FC(F)(F)Cn1cc(-c2ccncc2)c(-c2ccc(C#Cc3ccc4ccccc4n3)cc2)n1 [Example 18]
≥ 8.00	FCCn1cc(-c2ccncc2)c(-c2ccc(C#Cc3ccc4ccccc4n3)cc2)n1 [Example 19, 2-((4-(1-(2-fluoroethyl)-4-(pyridin-4-yl)-1H-pyrazol-3-yl)phenyl)ethynyl)quinoline]
7.00 to 8.00	C(#Cc1ccc2ccccc2n1)c1ccc(-n2cnnc2-c2ccncc2)cc1 [Example 23, 2-((4-(3-(pyridin-4-yl)-4H-1,2,4-triazol-4-yl)phenyl)ethynyl)quinoline]
7.00 to 8.00	Cn1cc(-c2ccncn2)c(-c2ccc(C#Cc3ccc4ccccc4n3)cc2)n1 [Example 26]
≥ 8.00	Cn1cc(-c2ccncc2)c(-c2ccc(C#Cc3ccc4ccccc4n3)cn2)n1 [Example 27, 2-((6-(1-methyl-4-(pyridin-4-yl)-1H-pyrazol-3-yl)pyridin-3-yl)ethynyl)quinoline]
≥ 8.00	C(#Cc1ccc2ccccc2n1)c1ccc(-c2ccnn2-c2ccncc2)cc1 [Example 28, 2-((4-(1-(pyridin-4-yl)-1H-pyrazol-5-yl)phenyl)ethynyl)quinoline]
≥ 8.00	CCn1cc(-c2ccncc2)c(-c2ccc(C#Cc3ccc4ccccc4n3)nc2)n1 [Example 31, 2-((5-(1-ethyl-4-(pyridin-4-yl)-1H-pyrazol-3-yl)pyridin-2-yl)ethynyl)quinoline]
7.00 to 8.00	COc1ccc(-c2cn(C)nc2-c2ccc(C#Cc3ccc4ccccc4n3)cc2)cc1 [Example 33, 2-((4-(4-(4-methoxyphenyl)-1-methyl-1H-pyrazol-3-yl)phenyl)ethynyl)quinoline]
≥ 8.00	C(#Cc1ccc2ccccc2n1)c1ccc(-c2c[nH]nc2-c2ccncc2)cc1 [Example 35, 2-((4-(3-(pyridin-4-yl)-1H-pyrazol-4-yl)phenyl)ethynyl)quinoline]
7.00 to 8.00	Cn1ncc(-c2ccc(C#Cc3ccc4ccccc4n3)cc2)c1-c1ccncc1 [Example 37, 2-((4-(1-methyl-5-(pyridin-4-yl)-1H-pyrazol-4-yl)phenyl)ethynyl)quinoline]
